Data on one compound can be found in US20060263344A1, “Novel probiotic compositions and methods of using the same” (priority 2003, published 2006).

Molecules are shown by their SMILES.

A word on the IC50: it is the concentration needed to halve the response being measured.

In data set [1] the test system is lower density lipoproteins (LDL+VLDL). Briefly: Inhibition of cupric ion-induced oxidation of lower density lipoproteins (antioxidant activity). It counts as biochemical, humans. The settings on record: inhibition of lipid peroxide formation in LDL+VLDL, 25 μM cupric ion, 37° C., 6 hours; matrix sample based on CoQ10 conc. How it is done: A weighed portion (50-500 mg) of solid sample of CoQ10 contained in a glycoprotein matrix was mixed with 5 ml of 50% methanol/water and heated at 90° C. in a plastic screw-capped tube with intermittent shaking for 2 hours to determine the unconjugated (“free”) phenols present. Another weighed portion of the same sample was heated with 5 ml of 1.2 M HCl in 50% aqueous methanol for 2 hours at 90° C. to measure the unconjugated plus conjugated (“total”) phenols. The extracts, each done in duplicate, were then filtered with a 0.45 μm filter and stored at −20° C. until assay. Values for free polyphenols and total phenols for commercial CoQ10 are known.
The phenol content in the extracts was measured by the Folin-Cocialteu reagent (Sigma Chemical Co., St. Louis, Mo.) using catechin (Sigma) as a standard. A blank, catechin standards and samples were added to the Folin reagent in a cuvette and after 20 minutes the color was measured at 720 nm vs. a blank. […]
The amount of lipid peroxides was measured using thiobarbituric acid and fluorometry. The % of inhibition of lipid peroxide formation was calculated vs. a control with no added antioxidants. The IC50 value in μM units was then calculated.
The amount of CoQ10 in the composition of the invention was determined by HPLC using UV detector, C18 column (Perkin Elmer Pecosil 5, 15 cm) and a solvent of 75% methanol and 25% isopropanol. […]

Data set [2] in a line: Stability of CoQ10 in a 50° C. oven open to the air (HPLC). Particulars: for Loss of CoQ10 after 36 days at 50° C. (equivalent to 3 months at room temperature) / Loss of CoQ10 after 72 days at 50° C. (equivalent to 6 months at room temperature): open to the air. It counts as physicochemical. The procedure: 100 mg of USP CoQ10 (Sigma) and CoQ10 contained in a glycoprotein matrix from Example 1 was placed in a 10 ml beaker in a 50° C. oven open to the air. The amount of CoQ10 remaining was analyzed by HPLC using a C18 column (Perkin Elmer Pecosil 5, 15 cm) and a solvent of 75% methanol and 25% isopropanol.

As to `COC1=C(OC)C(=O)C(C/C=C(\C)CC/C=C(\C)CC/C=C(\C)CC/C=C(\C)CC/C=C(\C)CC/C=C(\C)CC/C=C(\C)CC/C=C(\C)CC/C=C(\C)CCC=C(C)C)=C(C)C1=O` [CoQ10 (USP), Coenzyme Q10], in data set [1], half-maximal inhibition (IC50) required 1.33 µM. In data set [2] (0 days), the “Loss of CoQ10 at 0 days” value amounted to 0%. In addition, the “Loss of CoQ10 after 36 days at 50° C. (equivalent to 3 months at room temperature)” value in data set [2] (listed as USP CoQ10) and in data set [2] (listed as commercial CoQ10) was 6.8% each time. Moreover, the “Loss of CoQ10 after 72 days at 50° C. (equivalent to 6 months at room temperature)” value in data set [2] (listed as USP CoQ10) and in data set [2] (listed as commercial sample) was 16.8% in each case.
